Patent US11472803B2, “7-substituted 1-aryl-naphthyridine-3-carboxylic acid amides and use thereof” (Bayer Aktiengesellschaft, priority 2016, dated 2022)

Biological target: T1, human M2 receptor (Homo sapiens, UniProt P08172)
T1 construct: expressed in transfected cells; host or cells: CHO-DUKX (CHO-DUKX-M2-GIRK)
T1 sequence (P08172 1-466): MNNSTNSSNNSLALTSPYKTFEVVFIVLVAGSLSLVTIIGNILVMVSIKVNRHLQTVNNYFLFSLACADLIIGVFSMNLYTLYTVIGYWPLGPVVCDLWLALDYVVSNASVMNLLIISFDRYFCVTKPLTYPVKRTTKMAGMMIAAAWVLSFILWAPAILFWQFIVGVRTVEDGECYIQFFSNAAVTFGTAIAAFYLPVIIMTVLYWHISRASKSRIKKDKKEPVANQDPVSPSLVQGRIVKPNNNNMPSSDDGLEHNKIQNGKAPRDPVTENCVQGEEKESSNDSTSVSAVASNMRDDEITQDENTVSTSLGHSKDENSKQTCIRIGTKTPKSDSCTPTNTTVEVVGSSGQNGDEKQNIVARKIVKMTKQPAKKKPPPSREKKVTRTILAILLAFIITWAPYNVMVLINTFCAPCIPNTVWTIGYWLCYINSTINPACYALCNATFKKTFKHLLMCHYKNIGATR
Experiment: Functional M2-GIRK1/4 activation test: allosteric potency (EC50) and efficiency at EC20 acetylcholine
Format: cell-based
Settings: CHO-DUKX-M2-GIRK cells; for EC50: voltage-sensitive dye, acetylcholine at EC20, in some cases mean of two or more determinations; for Emax / Efficiency: boosting of the acetylcholine effect at EC20 acetylcholine concentration
Source text: The binding of orthosteric agonists (endogenous ligand: acetylcholine) to the M2 receptor leads to receptor activation or a change in conformation of the receptor in the manner of a shift in equilibrium in favour of the active receptor conformation.
The agonist-induced change in conformation of the M2 receptor results in a Gαi protein activation. […] Under physiological conditions, the result is then a selective efflux of potassium from the cell along the electrochemical gradient. […] The extent of hyperpolarization can therefore be regarded as a measure of the activation of the M2 receptor.
The test cell used is a recombinant CHO-DUKX cell line which has been stably transfected with cDNA coding for the human M2 receptor and with cDNA coding for both GIRK1/4 subunits (CHO-DUKX-M2-GIRK). The transmembrane potential, or the relative changes in the transmembrane potential as a function of substance addition or M2 activation, is determined by means of a voltage-sensitive dye (FLIPR Membrane Potential Assay Kit Blue, Molecular Devices #R8034) and the measurement of cell fluorescence using a proprietary fluorescence imaging instrument.
The sowing medium consisted of MEM alpha medium (supplemented with 5% PCS, 2% Glutamax, no genticin).
For the particular measurement, the medium was removed and the cells were laden with the volt-age-sensitive dye for at least 6 min at room temperature (30 μl of loading buffer per 384-well). This was followed, in a first measurement, by the determination of the fluorescence for the resting transmembrane potential for a period of 5 sec. Thereafter, 10 μl in each case of the test substances diluted in loading buffer were added, followed by a second measurement to determine the transmembrane potential for a period of 50 sec in 1 sec increments. Finally, the cells were admixed with 10 μl of agonist solution (acetylcholine dissolved in loading buffer). Acetylcholine was used at the concentration corresponding to the EC20, which had been determined in a preliminary test. The M2-mediated GIRK1/4 activation or hyperpolarization was then monitored in a third measurement over a period of 60 sec. The EC50 value (degree of allosteric potency of test compound) and the efficiency (measure of the boosting of the acetylcholine effect at an EC20 acetylcholine concentration) were determined with the aid of a 4-parameter logistic function (Hill function).

Row | SMILES | EC50 [nM] | Emax [%] | Efficiency [%]
1 | O=C(NC(c1ccccc1Cl)C(F)(F)F)c1cn(-c2c(F)cc(F)cc2F)c2nc(N3C[C@@H](O)[C@H](O)C3)c(F)cc2c1=O (mixture of isomers) [Example 131, N-[1-(2-Chlorophenyl)-2,2,2-trifluoroethyl]-7-[(3R,4R)-3,4-dihydroxypyrrolidin-1-yl]-6-fluoro-4-oxo-1-(2,4,6-trifluorophenyl)-1,4-dihydro-1,8-naphthyridine-3-carboxamide] | 4.6 | 100 | 
2 | C[C@H]1CN(c2nc3c(cc2F)c(=O)c(C(=O)N[C@@H](C2CC2)C(F)(F)F)cn3-c2c(F)cc(F)cc2F)CCN1 [Example 82, N-[(1S)-1-Cyclopropyl-2,2,2-trifluoroethyl]-6-fluoro-7-[(3S)-3-methylpiperazin-1-yl]-4-oxo-1-(2,4,6-trifluorophenyl)-1,4-dihydro-1,8-naphthyridine-3-carboxamide] | 140 | 65 | 
3 | C[C@H](NC(=O)c1cn(-c2c(F)cc(F)cc2Cl)c2nc(N3C[C@@H](O)[C@H](O)C3)c(F)cc2c1=O)C1CC1 [Example 43, 1-(2-chloro-4,6-difluorophenyl)-N-[(1S)-1-cyclopropylethyl]-7-[(3R,4R)-3,4-dihydroxypyrrolidin-1-yl]-6-fluoro-4-oxo-1,4-dihydro-1,8-naphthyridine-3-carboxamide] | 7.5 | 100 | 
4 | CC(C)(C)NC(=O)c1cn(-c2c(F)cc(F)cc2F)c2nc(N3C[C@@H](O)[C@@H](O)C3)c(F)cc2c1=O [Example 80, N-tert-Butyl-7-[(3R,4S)-3,4-dihydroxypyrrolidin-1-yl]-6-fluoro-4-oxo-1-(2,4,6-trifluoro-phenyl)-1,4-dihydro-1,8-naphthyridine-3-carboxamide] | 24 | 100 | 
5 | CC(NC(=O)c1cn(-c2c(F)cc(F)cc2F)c2nc(N3C[C@@H](O)[C@H](O)C3)c(F)cc2c1=O)C(F)(F)C(F)(F)F (mixture of isomers) [Example 8, 7-[(3R,4R)-3,4-Dihydroxypyrrolidin-1-yl]-6-fluoro-4-oxo-N-[3,3,4,4,4-pentafluorobutan-2-yl]-1-(2,4,6-trifluorophenyl)-1,4-dihydro-1,8-naphthyridine-3-carboxamide] |  | 96 | 
6 | CC(NC(=O)c1cn(-c2c(F)cc(F)cc2F)c2nc(N3CC[C@H](O)[C@@H]3CO)c(F)cc2c1=O)C(F)(F)C(F)(F)F (single isomer, unassigned) [Example 194] | 31.5 | 94 | 
7 | CCC(COC(F)(F)F)NC(=O)c1cn(-c2c(F)cc(F)cc2F)c2nc(N3C[C@@H](O)[C@@H](O)C3)c(F)cc2c1=O (single isomer, unassigned) [Example 97] | 13 |  | 97
8 | O=C(NC(C(F)(F)F)C(F)(F)F)c1cn(-c2ncc(F)cc2F)c2nc(N3CCC[C@@H]3CO)c(F)cc2c1=O [Example 197, 1-(3,5-Difluoropyridin-2-yl)-6-fluoro-N-(1,1,1,3,3,3-hexafluoropropan-2-yl)-7-[(2R)-2-(hydroxymethyl)pyrrolidin-1-yl]-4-oxo-1,4-dihydro-1,8-naphthyridine-3-carboxamide] | 51 | 100 | 
9 | CC(NC(=O)c1cn(-c2ncc(F)cc2F)c2nc(N3CC(O)C(O)C3)c(F)cc2c1=O)C(F)(F)C(F)(F)F (single isomer, unassigned) [Example 46] | 51 |  | 100
10 | C[C@H](O)CN(C)c1nc2c(cc1F)c(=O)c(C(=O)N[C@@H](C1CC1)C(F)(F)F)cn2-c1c(F)cc(F)cc1Cl [Example 72, 1-(2-Chloro-4,6-difluorophenyl)-N-[(1S)-1-cyclopropyl-2,2,2-trifluoroethyl]-6-fluoro-7-{[(2S)-2-hydroxypropyl](methyl)amino}-4-oxo-1,4-dihydro-1,8-naphthyridine-3-carboxamide] | 11 | 89 | 
11 | CC(C)[C@H](C)NC(=O)c1cn(-c2c(F)cc(F)cc2F)c2nc(N3CC[C@H](O)C3)c(F)cc2c1=O [Example 119, 6-Fluoro-7-[(3S)-3-hydroxypyrrolidin-1-yl]-N-[(2S)-3-methylbutan-2-yl]-4-oxo-1-(2,4,6-tri-fluorophenyl)-1,4-dihydro-1,8-naphthyridine-3-carboxamide] | 8.7 | 100 | 
12 | CCC(C)(CC)NC(=O)c1cn(-c2c(F)cc(F)cc2F)c2nc(N3C[C@@H](O)[C@H](O)C3)c(F)cc2c1=O [Example 88, 7-[(3R,4R)-3,4-Dihydroxypyrrolidin-1-yl]-6-fluoro-N-(3-methylpentan-3-yl)-4-oxo-1-(2,4,6-trifluorophenyl)-1,4-dihydro-1,8-naphthyridine-3-carboxamide] | 2.2 | 100 | 
13 | CC[C@H](NC(=O)c1cn(-c2c(F)cc(F)cc2F)c2nc(N3C[C@@H](O)[C@H](OC(C)=O)C3)c(F)cc2c1=O)C(F)(F)F [Example 35, (3R,4R)-1-[3-Fluoro-5-oxo-6-{[(2S)-1,1,1-trifluorobutan-2-yl]carbamoyl}-8-(2,4,6-trifluoro-phenyl)-5,8-dihydro-1,8-naphthyridin-2-yl]-4-hydroxypyrrolidin-3-yl acetate] | 2.9 | 100 | 
14 | O=C(NC(C1CC1)C1CC1)c1cn(-c2c(F)cc(F)cc2F)c2nc(N3C[C@@H](O)[C@H](O)C3)c(F)cc2c1=O [Example 21, N-(dicyclopropylmethyl)-7-[(3R,4R)-3,4-dihydroxypyrrolidin-1-yl]-6-fluoro-4-oxo-1-(2,4,6-trifluorophenyl)-1,4-dihydro-1,8-naphthyridine-3-carboxamide] | 3 | 100 | 
15 | O=C(NCC(F)(F)F)c1cn(-c2c(F)cc(F)cc2Cl)c2nc(N3C[C@@H](O)[C@H](O)C3)c(F)cc2c1=O (single isomer, unassigned) [Example 223] | 26 |  | 86
16 | CC(C)(NC(=O)c1cn(-c2c(F)cc(F)cc2Cl)c2nc(N3C[C@@H](O)[C@H](O)C3)c(F)cc2c1=O)C(F)F [Example 141, 1-(2-Chloro-4,6-difluorophenyl)-N-(1,1-difluoro-2-methylpropan-2-yl)-7-[(3R,4R)-3,4-dihydroxypyrrolidin-1-yl]-6-fluoro-4-oxo-1,4-dihydro-1,8-naphthyridine-3-carboxamide] | 3.4 | 97 | 
17 | CC(C)(C)C(NC(=O)c1cn(-c2c(F)cc(F)cc2F)c2nc(N3CC4(COC4)C3)c(F)cc2c1=O)C(F)(F)C(F)(F)F (single isomer, unassigned) [Example 213, 6-Fluoro-7-(2-oxa-6-azaspiro[3.3]hept-6-yl)-4-oxo-N-[1,1,1,2,2-pentafluoro-4,4-dimethylpentan-3-yl]-1-(2,4,6-trifluorophenyl)-1,4-dihydro-1,8-naphthyridine-3-carboxamide] | 13 | 100 | 
18 | CCC(NC(=O)c1cn(-c2c(F)cc(F)cc2F)c2nc(N3C[C@@H](O)[C@H](O)C3)c(F)cc2c1=O)C(C)C (single isomer, unassigned) [Example 29] | 2.5 | 100 | 
19 | CCC(NC(=O)c1cn(-c2c(F)cc(F)cc2F)c2nc(N3CC[C@H](O)C3)c(F)cc2c1=O)C(C)C (single isomer, unassigned) [Example 117] | 6.9 | 99 | 
